Reference: ChEMBL document CHEMBL4321836, “Discovery of BAY-298 and BAY-899: Tetrahydro-1,6-naphthyridine-Based, Potent, and Selective Antagonists of the Luteinizing Hormone Receptor Which Reduce Sex Hormone Levels in Vivo” (J Med Chem, 2019)
pIC50: −log10 of the molar value.

What was measured:
[1] = target: Cytochrome P450 1A2 (Homo sapiens, UniProt P05177); test: Inhibition of CYP1A2 in human liver microsomes using phenacetin as substrate by LC-MS/MS analysis; format: ADME
[2] = target: Beta-2 adrenergic receptor (Homo sapiens) (UniProt P07550); test: Antagonist activity at human beta2 adrenergic receptor expressed in CHO-K1 cells at 10 uM after 30 mins HTRF assay relative to control; format: cell-based; set-up: scale not given: the % may be the effect or the level left
Chain of Beta-2 adrenergic receptor (Homo sapiens) (P07550 whole entry, looked up): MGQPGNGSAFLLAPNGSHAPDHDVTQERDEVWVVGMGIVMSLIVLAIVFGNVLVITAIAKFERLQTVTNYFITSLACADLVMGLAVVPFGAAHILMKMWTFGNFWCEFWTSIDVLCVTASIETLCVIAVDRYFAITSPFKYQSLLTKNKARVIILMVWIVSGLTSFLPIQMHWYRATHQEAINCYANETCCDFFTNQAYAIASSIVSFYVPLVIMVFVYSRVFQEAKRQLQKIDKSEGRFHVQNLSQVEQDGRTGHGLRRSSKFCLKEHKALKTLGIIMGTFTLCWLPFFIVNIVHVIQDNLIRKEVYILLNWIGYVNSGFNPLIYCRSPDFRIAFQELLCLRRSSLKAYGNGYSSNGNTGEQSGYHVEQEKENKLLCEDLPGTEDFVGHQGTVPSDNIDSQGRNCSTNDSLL

[3] = Dose normalized Cmax in Wistar rat at 2 mg/kg, po after 8 to 72 hrs by LC-MS/MS analysis; format: ADME, organism-based; settings: in vivo
[4] = target: Cannabinoid receptor 1 (Homo sapiens) (UniProt P21554); test: Agonist activity at human CB1 receptor expressed in CHO-K1 cells at 10 uM after 20 mins HTRF assay relative to control; format: cell-based
Chain of Cannabinoid receptor 1 (Homo sapiens) (P21554 whole entry): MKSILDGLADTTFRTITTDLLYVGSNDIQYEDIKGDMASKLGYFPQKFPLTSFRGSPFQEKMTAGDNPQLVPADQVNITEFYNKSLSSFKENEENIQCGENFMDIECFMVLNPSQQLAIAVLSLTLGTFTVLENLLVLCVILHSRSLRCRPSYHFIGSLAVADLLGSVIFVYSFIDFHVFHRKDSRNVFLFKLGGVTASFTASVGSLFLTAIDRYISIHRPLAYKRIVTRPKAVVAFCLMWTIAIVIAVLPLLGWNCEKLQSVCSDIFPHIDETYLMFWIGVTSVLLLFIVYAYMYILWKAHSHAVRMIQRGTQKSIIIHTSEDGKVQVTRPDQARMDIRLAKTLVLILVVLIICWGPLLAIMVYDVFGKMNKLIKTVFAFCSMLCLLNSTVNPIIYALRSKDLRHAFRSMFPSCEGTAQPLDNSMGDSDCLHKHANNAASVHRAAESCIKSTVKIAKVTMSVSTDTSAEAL

[5] = species on record: Homo sapiens; test: Selectivity ratio of IC50 for human thyroid stimulating hormone receptor expressed in rat HTC133 cells to human luteinizing hormone receptor; format: cell-based
[6] = target: T1, Muscarinic acetylcholine receptor M1 (Homo sapiens) (UniProt P11229); test: Agonist activity at human muscarinic M1 receptor expressed in CHO-K1 cells at 10 uM by fluorimetric method relative to control; format: cell-based
T1 sequence (whole entry): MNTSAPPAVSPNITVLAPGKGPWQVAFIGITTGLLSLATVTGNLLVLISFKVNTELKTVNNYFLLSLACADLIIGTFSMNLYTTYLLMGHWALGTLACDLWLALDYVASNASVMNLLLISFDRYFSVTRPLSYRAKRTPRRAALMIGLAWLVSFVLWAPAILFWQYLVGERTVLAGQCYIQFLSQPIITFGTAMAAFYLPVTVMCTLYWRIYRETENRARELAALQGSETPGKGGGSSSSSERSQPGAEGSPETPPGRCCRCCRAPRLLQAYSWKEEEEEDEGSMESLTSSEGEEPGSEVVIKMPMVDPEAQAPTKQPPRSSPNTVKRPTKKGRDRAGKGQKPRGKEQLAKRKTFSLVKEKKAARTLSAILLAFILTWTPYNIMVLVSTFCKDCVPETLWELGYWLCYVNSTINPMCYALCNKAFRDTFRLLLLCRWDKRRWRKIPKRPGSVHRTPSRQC

[7] = target: Cytochrome P450 3A4 (Homo sapiens, UniProt P08684); test: Inhibition of CYP3A4 in human liver microsomes using midazolam as substrate by LC-MS/MS analysis; format: ADME
Chain of Cytochrome P450 3A4 (P08684 whole entry): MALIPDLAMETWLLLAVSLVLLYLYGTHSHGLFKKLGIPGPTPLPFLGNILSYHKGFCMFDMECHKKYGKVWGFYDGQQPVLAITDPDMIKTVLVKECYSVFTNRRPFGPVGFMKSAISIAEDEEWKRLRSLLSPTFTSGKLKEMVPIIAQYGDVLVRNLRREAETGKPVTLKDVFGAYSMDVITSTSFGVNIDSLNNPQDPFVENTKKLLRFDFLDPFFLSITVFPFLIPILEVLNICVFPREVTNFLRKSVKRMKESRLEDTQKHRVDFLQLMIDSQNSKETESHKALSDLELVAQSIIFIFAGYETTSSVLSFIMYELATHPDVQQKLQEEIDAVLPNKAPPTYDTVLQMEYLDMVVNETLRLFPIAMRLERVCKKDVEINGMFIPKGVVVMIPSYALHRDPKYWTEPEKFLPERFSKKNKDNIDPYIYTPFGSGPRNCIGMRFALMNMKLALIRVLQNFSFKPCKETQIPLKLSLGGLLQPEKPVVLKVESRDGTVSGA

[8] = target: Beta-2 adrenergic receptor (Homo sapiens) (UniProt P07550); test: Agonist activity at human beta2 adrenergic receptor expressed in CHO-K1 cells at 10 uM after 30 mins HTRF assay relative to control; format: cell-based
[9] = target: Histamine H1 receptor (Homo sapiens) (UniProt P35367); test: Antagonist activity at human histamine H1 receptor expressed in HEK293 cells at 10 uM by Fluorimetric method relative to control; format: cell-based; set-up: scale not given: the % may be the effect or the level left
Chain of Histamine H1 receptor (Homo sapiens) (P35367 whole entry): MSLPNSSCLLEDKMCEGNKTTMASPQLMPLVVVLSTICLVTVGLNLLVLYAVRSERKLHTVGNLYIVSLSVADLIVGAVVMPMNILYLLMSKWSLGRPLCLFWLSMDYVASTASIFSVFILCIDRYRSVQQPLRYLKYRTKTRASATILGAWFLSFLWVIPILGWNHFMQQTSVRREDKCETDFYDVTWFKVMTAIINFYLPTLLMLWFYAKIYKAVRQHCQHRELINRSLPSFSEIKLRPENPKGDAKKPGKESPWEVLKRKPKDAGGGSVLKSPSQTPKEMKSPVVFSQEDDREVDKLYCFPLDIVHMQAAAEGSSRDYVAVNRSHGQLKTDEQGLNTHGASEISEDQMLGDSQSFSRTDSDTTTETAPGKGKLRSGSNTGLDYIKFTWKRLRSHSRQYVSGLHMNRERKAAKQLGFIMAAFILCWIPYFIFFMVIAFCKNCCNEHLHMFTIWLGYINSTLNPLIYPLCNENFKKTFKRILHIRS

[10] = target: T2, Follicle-stimulating hormone receptor (Homo sapiens, UniProt P23945); test: Antagonist activity at human follicle stimulating hormone receptor assessed as reduction in agonist-induced cAMP production preincubated for 20 mins followed by agonist solution addition and measured after 120 mins by cell based TR-FRET assay; format: functional
T2 sequence (P23945 whole entry): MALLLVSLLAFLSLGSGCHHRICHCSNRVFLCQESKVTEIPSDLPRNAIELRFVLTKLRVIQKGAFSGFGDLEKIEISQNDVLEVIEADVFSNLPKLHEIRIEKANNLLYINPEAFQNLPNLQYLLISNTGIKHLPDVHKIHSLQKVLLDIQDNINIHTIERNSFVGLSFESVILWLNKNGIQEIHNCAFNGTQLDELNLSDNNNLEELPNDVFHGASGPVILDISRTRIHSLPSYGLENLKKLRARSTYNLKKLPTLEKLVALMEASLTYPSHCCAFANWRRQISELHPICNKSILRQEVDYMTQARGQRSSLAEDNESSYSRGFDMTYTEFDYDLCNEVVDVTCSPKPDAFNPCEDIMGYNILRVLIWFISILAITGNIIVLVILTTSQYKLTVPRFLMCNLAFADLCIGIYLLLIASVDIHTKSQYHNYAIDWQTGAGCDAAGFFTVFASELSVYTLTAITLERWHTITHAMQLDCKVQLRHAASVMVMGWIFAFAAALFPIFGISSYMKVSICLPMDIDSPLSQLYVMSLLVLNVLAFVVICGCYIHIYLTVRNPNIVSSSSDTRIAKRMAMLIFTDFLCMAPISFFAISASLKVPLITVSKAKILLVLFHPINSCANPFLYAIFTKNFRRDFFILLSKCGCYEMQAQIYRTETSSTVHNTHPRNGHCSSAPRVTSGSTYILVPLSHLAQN

[11] = target: Lutropin-choriogonadotropic hormone receptor (Rattus norvegicus, UniProt P16235); test: Antagonist activity at rat luteinizing hormone receptor expressed in rat ovary granulosa GLHR15 cell suspension assessed as reduction in agonist-induced cAMP production preincubated for 30 mins followed by agonist solution addition after 30 mins by cell based TR-FRET assay; format: functional
[12] = target: Beta-1 adrenergic receptor (Homo sapiens) (UniProt P08588); test: Antagonist activity at human beta1 adrenergic receptor expressed in HEK293 cells at 10 uM after 30 mins HTRF assay relative to control; format: cell-based; set-up: scale not given: the % may be the effect or the level left
[13] = target: Cytochrome P450 2D6 (Homo sapiens, UniProt P10635); test: Inhibition of CYP2D6 in human liver microsomes using dextromethorphan as substrate by LC-MS/MS analysis; format: ADME
Chain of Cytochrome P450 2D6 (P10635 whole entry): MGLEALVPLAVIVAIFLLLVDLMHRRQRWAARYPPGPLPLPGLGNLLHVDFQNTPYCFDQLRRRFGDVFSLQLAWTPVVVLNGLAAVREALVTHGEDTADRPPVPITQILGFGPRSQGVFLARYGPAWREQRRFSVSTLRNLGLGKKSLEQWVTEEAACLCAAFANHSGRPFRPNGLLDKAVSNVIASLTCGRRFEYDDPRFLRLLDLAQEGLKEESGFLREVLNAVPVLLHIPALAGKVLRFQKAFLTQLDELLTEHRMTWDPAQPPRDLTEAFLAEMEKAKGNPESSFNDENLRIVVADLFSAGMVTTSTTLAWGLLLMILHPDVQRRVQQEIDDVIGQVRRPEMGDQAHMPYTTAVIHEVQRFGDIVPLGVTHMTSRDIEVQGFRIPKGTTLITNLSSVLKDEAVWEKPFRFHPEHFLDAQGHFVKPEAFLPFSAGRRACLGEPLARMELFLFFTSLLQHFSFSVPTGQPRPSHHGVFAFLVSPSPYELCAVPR

[14] = target: Cytochrome P450 2C8 (Homo sapiens, UniProt P10632); test: Inhibition of CYP2C8 in human liver microsomes using amodiaquine as substrate by LC-MS/MS analysis; format: ADME
[15] = Apparent permeability across apical to basolateral side in human Caco2 cells at 2 uM after 2 hrs by LC-MS/MS analysis; format: ADME, cell-based; settings: Caco-2
[16] = target: Cytochrome P450 2C9 (Homo sapiens, UniProt P11712); test: Inhibition of CYP2C9 in human liver microsomes using diclofenac as substrate by LC-MS/MS analysis; format: ADME
Chain of Cytochrome P450 2C9 (P11712 whole entry): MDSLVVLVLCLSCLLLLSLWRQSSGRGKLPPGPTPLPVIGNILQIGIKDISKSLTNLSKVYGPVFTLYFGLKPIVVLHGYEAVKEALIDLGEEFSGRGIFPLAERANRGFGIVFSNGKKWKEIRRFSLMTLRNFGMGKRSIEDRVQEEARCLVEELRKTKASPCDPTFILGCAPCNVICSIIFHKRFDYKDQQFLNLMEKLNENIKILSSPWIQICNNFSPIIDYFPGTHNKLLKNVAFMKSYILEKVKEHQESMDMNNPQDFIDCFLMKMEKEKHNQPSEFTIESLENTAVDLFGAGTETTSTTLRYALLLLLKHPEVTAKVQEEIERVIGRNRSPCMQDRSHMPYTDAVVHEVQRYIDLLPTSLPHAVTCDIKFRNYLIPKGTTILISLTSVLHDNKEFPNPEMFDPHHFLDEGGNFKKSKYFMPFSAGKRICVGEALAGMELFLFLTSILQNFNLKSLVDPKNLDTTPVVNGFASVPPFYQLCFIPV

[17] = target: Kappa-type opioid receptor (Homo sapiens) (UniProt P41145); test: Antagonist activity at human kappa opioid receptor at 10 uM by Spectrophotometric method relative to control; set-up: scale not given: the % may be the effect or the level left
Chain of Kappa-type opioid receptor (Homo sapiens) (P41145 whole entry): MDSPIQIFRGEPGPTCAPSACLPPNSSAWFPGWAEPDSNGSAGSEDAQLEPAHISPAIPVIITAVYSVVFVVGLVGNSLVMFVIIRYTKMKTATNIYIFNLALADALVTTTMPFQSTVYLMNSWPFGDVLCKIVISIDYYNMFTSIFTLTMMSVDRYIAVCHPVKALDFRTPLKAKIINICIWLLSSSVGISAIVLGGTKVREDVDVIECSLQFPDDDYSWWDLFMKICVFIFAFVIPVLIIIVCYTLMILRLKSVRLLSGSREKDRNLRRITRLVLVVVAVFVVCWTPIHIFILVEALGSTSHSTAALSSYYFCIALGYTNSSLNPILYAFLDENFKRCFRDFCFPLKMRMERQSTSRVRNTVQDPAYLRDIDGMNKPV

[18] = target: Somatostatin receptor type 4 (Homo sapiens) (UniProt P31391); test: Antagonist activity at human sst4 expressed in CHO-K1 cells at 10 uM after 10 mins by HTRF assay relative to control; format: cell-based; set-up: scale not given: the % may be the effect or the level left
[19] = target: Motilin receptor (Homo sapiens) (UniProt O43193); test: Agonist activity at human Motilin receptor expressed in CHO-K1 cells at 10 uM by fluorimetric method relative to control; format: cell-based
Chain of Motilin receptor (Homo sapiens) (O43193 whole entry): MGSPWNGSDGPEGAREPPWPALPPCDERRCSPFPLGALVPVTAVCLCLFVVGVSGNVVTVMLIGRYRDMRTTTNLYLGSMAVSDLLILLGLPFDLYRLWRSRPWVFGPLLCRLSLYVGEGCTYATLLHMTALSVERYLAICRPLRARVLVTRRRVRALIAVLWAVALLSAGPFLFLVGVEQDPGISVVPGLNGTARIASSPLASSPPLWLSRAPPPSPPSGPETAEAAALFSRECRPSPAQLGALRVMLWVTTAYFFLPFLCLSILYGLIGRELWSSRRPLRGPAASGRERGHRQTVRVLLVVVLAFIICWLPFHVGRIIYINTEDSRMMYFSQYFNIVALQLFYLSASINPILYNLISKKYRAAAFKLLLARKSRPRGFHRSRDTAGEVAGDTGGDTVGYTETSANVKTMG

[20] = target: 5-hydroxytryptamine receptor 6 (Homo sapiens) (UniProt P50406); test: Agonist activity at human 5-HT6 receptor expressed in CHO-K1 cells at 10 uM after 30 mins by HTRF assay relative to control; format: cell-based
Chain of 5-hydroxytryptamine receptor 6 (Homo sapiens) (P50406 whole entry): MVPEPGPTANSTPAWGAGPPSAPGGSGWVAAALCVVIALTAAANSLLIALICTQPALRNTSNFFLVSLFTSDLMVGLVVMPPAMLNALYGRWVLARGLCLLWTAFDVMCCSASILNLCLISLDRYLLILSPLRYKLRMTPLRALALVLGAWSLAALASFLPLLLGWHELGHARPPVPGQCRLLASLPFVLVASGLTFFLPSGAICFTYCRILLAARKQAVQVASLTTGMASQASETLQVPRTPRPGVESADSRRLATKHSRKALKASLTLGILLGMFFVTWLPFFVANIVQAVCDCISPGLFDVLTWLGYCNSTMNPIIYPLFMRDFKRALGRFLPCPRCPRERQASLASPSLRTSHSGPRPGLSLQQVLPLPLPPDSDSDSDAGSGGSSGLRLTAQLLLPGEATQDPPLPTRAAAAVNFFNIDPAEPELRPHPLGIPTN

[21] = target: Histamine H3 receptor (Homo sapiens) (UniProt Q9Y5N1); test: Antagonist activity at human histamine H3 receptor expressed in CHO-K1 cells at 10 uM after 10 mins by HTRF assay relative to control; format: cell-based; set-up: scale not given: the % may be the effect or the level left
[22] = Toxicity in female rat assessed as effect on animal activity; settings: in vivo

Chain of Cytochrome P450 1A2 (P05177 whole entry): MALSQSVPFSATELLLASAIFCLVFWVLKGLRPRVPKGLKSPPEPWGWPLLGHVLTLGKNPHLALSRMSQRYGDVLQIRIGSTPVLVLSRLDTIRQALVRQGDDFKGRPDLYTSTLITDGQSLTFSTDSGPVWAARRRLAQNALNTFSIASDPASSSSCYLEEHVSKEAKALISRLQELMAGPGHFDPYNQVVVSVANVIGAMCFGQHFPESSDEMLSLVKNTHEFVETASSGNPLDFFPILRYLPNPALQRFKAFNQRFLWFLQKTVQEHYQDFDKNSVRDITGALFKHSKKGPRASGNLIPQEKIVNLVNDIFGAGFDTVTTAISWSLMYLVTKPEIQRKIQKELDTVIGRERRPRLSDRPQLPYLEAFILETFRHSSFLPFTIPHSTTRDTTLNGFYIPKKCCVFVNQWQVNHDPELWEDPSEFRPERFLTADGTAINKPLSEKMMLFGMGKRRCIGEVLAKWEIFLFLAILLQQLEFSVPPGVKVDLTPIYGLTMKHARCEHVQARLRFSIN

| pIC50 [1] | Activity [2] | Cmax/dose [3] | Activity [4] | Activity [6] | pIC50 [7] | Activity [8] | Activity [9] | pIC50 [10] | pIC50 [11] | Activity [12] | pIC50 [13] | pIC50 [14] | Papp A→B at 2 h, 2 µM [15] | pIC50 [16] | Activity [17] | Activity [18] | Activity [19] | Activity [20] | SMILES | Ratio IC50 [5] | further results |
| --- | --- | --- | --- | --- | --- | --- | --- | --- | --- | --- | --- | --- | --- | --- | --- | --- | --- | --- | --- | --- | --- |
| < 4.70 | < 70% | 0.066 kg/L | < 70% | < 70% | < 4.70 | < 70% | < 70% | < 4.80 | 7.34 | < 70% | < 4.70 | 5.51 | 8.9 ×10⁻⁶ cm/s | 5.00 | < 70% | < 70% | < 70% | < 70% | O=C(Nc1cnc(Oc2ccc(F)cc2)nc1)N1CCc2ncccc2[C@@H]1c1ccc(F)cc1 [BAY-899] | > 100 | Activity [21]: < 70%; Activity [22]: Non-Toxic |
| < 4.70 | < 70% | 0.24 kg/L | < 70% | < 70% | < 4.70 | < 70% | < 70% | < 4.80 | 7.64 | < 70% | < 4.70 | 6.15 | 1.5 ×10⁻⁶ cm/s | 5.36 | < 70% | < 70% | < 70% | < 70% | O=C(Nc1ccc(Oc2ccc(F)cc2)cc1)N1CCc2ncccc2[C@@H]1c1ccc(Cl)cc1 | 24 | Activity [21]: < 70%; Activity [22]: Non-Toxic |
